Results as given in ChEMBL document CHEMBL5380857, “Discovery of Potent, Selective, and Orally Bioavailable Small-Molecule Inhibitors of CDK8 for the Treatment of Cancer” (J Med Chem, 2023).
Calls of active or inactive are those of the source. The rule behind the calls is not given here.

Experiments:
[1] = target: Dual specificity protein kinase CLK2 (Homo sapiens, UniProt P49760); assay: Binding affinity to CLK2 (unknown origin) assessed as dissociation constant by competitive binding assay
MV4-11 [2] = assay: Induction of cell cycle arrest in human MV4-11 cells assessed as reduction in accumulation of cells at S phase at 0.01 to 1 uM incubated for 48 hrs; type: functional, cell-based; conditions: dose 0.01-1 µM
[3] = Bioavailability in Beagle dog at 1 mg/kg, po or 0.5 mg/kg, iv administered as single dose and measured for 24 hrs by LC-MS/MS analysis; type: ADME, organism-based, Canis lupus familiaris; conditions: in vivo
[4] = Cytotoxicity against HEK293 cells; type: toxicity, cell-based; conditions: human
[5] = target: T1, Signal transducer and activator of transcription 1-alpha/beta (Homo sapiens) (UniProt P42224); assay: Inhibition of STAT1 phosphorylation at S727 residue in human MV4-11 cells incubated for 24 hrs by Western blot analysis; type: cell-based; conditions: dose 0.001-1 µM
T1 sequence (whole entry): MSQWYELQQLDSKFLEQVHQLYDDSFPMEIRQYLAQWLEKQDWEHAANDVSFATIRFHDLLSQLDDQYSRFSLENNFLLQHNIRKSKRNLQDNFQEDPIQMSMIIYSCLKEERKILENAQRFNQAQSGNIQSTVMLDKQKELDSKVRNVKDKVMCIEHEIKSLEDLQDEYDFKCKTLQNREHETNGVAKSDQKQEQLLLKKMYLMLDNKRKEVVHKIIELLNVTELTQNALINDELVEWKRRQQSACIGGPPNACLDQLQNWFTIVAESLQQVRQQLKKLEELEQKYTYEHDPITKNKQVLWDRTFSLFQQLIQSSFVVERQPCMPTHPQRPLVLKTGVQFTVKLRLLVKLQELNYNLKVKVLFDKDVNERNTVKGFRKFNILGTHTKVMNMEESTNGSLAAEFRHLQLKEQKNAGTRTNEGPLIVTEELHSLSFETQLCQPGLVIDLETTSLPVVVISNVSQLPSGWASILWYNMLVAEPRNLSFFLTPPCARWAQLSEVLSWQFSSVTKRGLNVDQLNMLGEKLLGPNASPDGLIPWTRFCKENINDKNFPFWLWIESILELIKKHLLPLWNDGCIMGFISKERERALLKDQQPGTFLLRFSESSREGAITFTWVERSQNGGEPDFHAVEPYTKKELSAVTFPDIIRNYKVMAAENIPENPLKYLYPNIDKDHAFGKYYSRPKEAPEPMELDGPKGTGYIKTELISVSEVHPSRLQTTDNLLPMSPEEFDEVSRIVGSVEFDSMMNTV

MV4-11 [6] = assay: Antitumor activity against human MV4-11 cells xenografted in BALB/c nude mouse assessed as tumor growth inhibition at 3 mg/kg, po bid administered by gavage for 17 days and measured 3 times per week by caliper method relative to control; type: functional; conditions: MV4-11, 408 h, time 17 day, read-out: TGI
[7] = target: Glycogen synthase kinase-3 beta (Homo sapiens, UniProt P49841)
Description: Binding affinity to GSK3B (unknown origin) assessed as dissociation constant by competitive binding assay

[8] = target: Cyclin-dependent kinase 19 (Homo sapiens, UniProt Q9BWU1); assay: Inhibition of CDK19 (unknown origin)
Cytochrome P450 1A2 = target: T2, Cytochrome P450 1A2 (Homo sapiens, UniProt P05177); assay: Inhibition of CYP1A2 in human liver microsomes using phenacetin as substrate assessed as reduction in substrate O-deethylation incubated for 10 mins in presence of NADPH by LC-MS/MS analysis; type: ADME, Microsome
T2 sequence (P05177 whole entry): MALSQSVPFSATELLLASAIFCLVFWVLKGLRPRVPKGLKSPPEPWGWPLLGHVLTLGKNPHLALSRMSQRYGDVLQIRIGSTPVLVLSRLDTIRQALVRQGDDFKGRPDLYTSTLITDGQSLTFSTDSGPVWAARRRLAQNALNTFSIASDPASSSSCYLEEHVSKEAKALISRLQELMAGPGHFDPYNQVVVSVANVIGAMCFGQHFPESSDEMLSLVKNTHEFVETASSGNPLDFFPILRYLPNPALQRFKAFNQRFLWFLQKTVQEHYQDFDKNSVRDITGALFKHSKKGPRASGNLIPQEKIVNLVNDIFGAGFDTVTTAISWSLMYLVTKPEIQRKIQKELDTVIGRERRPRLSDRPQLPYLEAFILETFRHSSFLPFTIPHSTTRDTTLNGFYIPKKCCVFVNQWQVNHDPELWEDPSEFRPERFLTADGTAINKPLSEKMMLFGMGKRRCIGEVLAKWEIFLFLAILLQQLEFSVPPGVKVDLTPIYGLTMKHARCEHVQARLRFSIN

[9] = Clearance in CD-1 mouse assessed as liver blood flow at 5 mg/kg, po or 1 mg/kg, iv administered as single dose and measured for 24 hrs by LC-MS/MS analysis; type: ADME, organism-based; conditions: in vivo
[10] = Clearance in Sprague-Dawley rat assessed as liver blood flow at 5 mg/kg, po or 1 mg/kg, iv administered as single dose and measured for 24 hrs by LC-MS/MS analysis; type: ADME, organism-based; conditions: in vivo
MV4-11 [11] = assay: Induction of cell cycle arrest in human MV4-11 cells assessed as reduction in accumulation of cells at G2/M phase at 0.01 to 1 uM incubated for 48 hrs; type: functional, cell-based; conditions: dose 0.01-1 µM
Mus musculus = assay: In vivo inhibition of STAT1 phosphorylation at S727 residue in BALB/c nude mouse xenografted with human MV4-11 cells assessed as reduction in p-STAT1 protein level administered orally by gavage twice per day for 17 days and measured 24 hrs post last dose by Western blot analysis; type: functional, organism-based; conditions: dose 1-10 mg/kg, route po, time 17.0 day
Cytochrome P450 2C19 = Cytochrome P450 2C19 (Homo sapiens, UniProt P33261); assay: Inhibition of CYP2C19 in human liver microsomes using S-mephenytoin as substrate assessed as reduction in substrate hydroxylation incubated for 10 mins in presence of NADPH by LC-MS/MS analysis; type: ADME, Microsome
[12] = Metabolic stability in rat liver microsomes assessed as intrinsic clearance at 1 uM preincubated for 10 mins followed by NADPH addition and measured for 60 mins by LC-MS/MS analysis; type: ADME, Microsome; conditions: read-out: CLH
[13] = target: Glycogen synthase kinase-3 alpha (Homo sapiens, UniProt P49840); assay: Binding affinity to GSK3A (unknown origin) assessed as dissociation constant by competitive binding assay
Cytochrome P450 3A4 = Cytochrome P450 3A4 (Homo sapiens, UniProt P08684); assay: Inhibition of CYP3A4 in human liver microsomes using midazolam as substrate assessed as reduction in substrate hydroxylation incubated for 10 mins in presence of NADPH by LC-MS/MS analysis; type: ADME, Microsome
[14] = target: Voltage-gated inwardly rectifying potassium channel KCNH2 (Homo sapiens, UniProt Q12809); assay: Inhibition of hERG expressed in CHO cells at -80 mV holding potential by whole cell patch clamp recording assay; type: toxicity, cell-based
[15] = Volume of distribution in CD-1 mouse at 5 mg/kg, po or 1 mg/kg, iv administered as single dose and measured for 24 hrs by LC-MS/MS analysis; type: ADME, organism-based; conditions: in vivo

Glycogen synthase kinase-3 alpha, sequence (P49840 whole entry): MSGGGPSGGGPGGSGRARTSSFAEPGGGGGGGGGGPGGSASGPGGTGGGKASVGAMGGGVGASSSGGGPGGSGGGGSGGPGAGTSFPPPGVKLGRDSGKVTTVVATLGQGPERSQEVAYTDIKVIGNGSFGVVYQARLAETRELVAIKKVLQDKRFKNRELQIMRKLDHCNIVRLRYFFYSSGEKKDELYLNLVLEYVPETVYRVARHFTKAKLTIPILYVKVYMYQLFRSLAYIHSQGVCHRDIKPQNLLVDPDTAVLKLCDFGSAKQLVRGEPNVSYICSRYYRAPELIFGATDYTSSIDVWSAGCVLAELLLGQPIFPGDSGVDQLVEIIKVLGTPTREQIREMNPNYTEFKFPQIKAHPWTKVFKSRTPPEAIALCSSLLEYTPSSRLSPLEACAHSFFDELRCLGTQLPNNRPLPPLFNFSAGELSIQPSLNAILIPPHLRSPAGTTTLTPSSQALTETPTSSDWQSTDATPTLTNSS
Glycogen synthase kinase-3 beta, sequence (P49841 whole entry): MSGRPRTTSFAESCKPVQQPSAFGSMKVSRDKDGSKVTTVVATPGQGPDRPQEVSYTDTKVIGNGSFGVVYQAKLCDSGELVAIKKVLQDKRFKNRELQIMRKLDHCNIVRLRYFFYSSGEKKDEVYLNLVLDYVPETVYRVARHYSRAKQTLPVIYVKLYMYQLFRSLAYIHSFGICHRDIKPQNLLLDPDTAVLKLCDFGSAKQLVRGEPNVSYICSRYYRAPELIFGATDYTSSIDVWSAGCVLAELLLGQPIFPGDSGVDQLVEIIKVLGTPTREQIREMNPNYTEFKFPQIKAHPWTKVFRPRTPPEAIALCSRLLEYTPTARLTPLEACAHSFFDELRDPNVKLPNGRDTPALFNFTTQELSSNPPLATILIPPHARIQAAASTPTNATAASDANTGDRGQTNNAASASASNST
Cytochrome P450 3A4, sequence (P08684 whole entry): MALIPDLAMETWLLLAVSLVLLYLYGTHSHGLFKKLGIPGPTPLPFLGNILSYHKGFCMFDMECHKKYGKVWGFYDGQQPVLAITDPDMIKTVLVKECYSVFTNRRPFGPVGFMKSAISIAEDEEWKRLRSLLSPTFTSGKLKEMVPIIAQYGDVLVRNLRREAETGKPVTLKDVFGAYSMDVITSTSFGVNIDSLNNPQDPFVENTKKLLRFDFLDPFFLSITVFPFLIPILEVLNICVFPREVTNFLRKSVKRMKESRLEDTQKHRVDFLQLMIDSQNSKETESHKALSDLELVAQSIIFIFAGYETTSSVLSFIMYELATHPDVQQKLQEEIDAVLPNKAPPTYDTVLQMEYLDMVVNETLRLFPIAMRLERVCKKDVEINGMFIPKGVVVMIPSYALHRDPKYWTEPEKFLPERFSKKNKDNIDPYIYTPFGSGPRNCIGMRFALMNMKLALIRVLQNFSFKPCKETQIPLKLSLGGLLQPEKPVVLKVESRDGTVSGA
Cyclin-dependent kinase 19, sequence (Q9BWU1 whole entry): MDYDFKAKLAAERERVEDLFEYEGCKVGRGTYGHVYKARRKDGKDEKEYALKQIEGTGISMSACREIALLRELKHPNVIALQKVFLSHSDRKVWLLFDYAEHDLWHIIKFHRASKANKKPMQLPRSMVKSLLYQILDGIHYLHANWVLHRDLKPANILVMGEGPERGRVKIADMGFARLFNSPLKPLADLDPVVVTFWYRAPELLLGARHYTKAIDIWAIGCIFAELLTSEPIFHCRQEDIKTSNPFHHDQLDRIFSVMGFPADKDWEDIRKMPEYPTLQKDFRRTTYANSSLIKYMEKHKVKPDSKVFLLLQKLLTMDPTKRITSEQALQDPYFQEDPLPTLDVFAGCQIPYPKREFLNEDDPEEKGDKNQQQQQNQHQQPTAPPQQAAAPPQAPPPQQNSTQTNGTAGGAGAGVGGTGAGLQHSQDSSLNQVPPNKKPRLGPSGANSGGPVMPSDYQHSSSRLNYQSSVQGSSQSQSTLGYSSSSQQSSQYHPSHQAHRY
Cytochrome P450 2C19, sequence (P33261 whole entry): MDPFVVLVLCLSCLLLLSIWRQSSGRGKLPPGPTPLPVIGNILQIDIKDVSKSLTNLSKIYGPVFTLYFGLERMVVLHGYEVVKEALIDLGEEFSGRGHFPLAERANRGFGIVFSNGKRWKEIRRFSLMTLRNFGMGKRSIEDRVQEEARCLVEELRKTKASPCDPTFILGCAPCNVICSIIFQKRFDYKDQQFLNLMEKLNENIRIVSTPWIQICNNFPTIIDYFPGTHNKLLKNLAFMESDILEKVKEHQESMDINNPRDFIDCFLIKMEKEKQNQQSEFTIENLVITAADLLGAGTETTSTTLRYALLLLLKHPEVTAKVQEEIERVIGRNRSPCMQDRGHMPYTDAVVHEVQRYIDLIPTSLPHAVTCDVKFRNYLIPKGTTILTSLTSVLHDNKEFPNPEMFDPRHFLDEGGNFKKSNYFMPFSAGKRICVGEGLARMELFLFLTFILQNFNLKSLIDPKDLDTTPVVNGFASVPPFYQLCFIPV
Voltage-gated inwardly rectifying potassium channel KCNH2, sequence (Q12809 whole entry): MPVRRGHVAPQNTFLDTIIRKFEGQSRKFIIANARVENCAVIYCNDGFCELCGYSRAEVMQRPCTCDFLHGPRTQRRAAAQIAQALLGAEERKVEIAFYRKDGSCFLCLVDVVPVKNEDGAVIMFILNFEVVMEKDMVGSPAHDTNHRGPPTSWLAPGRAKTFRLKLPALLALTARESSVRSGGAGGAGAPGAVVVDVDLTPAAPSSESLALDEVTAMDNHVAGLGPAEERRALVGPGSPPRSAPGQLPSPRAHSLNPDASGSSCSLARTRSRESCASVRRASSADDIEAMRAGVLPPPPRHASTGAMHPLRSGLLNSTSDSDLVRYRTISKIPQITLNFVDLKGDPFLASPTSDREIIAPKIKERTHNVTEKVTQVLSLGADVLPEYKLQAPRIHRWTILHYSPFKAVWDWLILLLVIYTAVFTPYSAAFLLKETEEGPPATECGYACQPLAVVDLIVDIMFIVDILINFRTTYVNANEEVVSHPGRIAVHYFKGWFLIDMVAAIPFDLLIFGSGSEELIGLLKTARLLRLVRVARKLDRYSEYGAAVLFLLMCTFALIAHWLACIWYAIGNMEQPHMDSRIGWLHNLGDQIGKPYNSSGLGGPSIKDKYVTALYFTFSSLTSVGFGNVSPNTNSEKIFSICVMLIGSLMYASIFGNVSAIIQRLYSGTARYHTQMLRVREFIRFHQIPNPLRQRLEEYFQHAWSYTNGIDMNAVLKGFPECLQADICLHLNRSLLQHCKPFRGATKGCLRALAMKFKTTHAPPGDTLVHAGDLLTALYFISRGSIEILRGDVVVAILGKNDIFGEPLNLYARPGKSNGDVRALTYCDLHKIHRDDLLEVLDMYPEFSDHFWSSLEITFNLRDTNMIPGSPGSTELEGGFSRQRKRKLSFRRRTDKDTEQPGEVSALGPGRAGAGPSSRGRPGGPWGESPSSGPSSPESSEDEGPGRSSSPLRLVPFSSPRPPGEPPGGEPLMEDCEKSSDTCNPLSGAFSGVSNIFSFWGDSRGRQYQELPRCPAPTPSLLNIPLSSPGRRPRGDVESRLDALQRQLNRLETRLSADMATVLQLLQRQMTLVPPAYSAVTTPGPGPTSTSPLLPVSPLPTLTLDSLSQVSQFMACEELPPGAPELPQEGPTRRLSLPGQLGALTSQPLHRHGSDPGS
Dual specificity protein kinase CLK2, sequence (P49760 whole entry): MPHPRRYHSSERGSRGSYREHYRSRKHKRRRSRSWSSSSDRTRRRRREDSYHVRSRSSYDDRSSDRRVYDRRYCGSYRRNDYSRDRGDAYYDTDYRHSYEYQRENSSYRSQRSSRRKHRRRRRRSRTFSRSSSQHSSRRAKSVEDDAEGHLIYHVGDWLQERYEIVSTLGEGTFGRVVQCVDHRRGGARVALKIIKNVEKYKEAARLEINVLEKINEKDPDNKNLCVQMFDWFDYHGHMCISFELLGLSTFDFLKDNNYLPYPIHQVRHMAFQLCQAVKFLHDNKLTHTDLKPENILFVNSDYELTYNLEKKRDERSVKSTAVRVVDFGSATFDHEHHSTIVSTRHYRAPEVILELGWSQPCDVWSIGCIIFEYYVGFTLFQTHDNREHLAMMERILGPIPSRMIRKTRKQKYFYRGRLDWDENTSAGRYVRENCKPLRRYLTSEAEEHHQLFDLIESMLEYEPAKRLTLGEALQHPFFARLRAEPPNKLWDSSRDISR

## Cc1n[nH]c2ccc(-c3nnc(C)n3Cc3ccc(C(F)(F)F)cc3)cc12
[1]
  Kd: 68 nM
MV4-11 [2]
  Activity: Active
[3]
  bioavailability: 102%
[4]
  EC50: > 10 µM
[5]
  inhibition: Dose-Dependent Effect
MV4-11 [6]
  inhibition in vivo at 3 mg/kg: 84.8%
[7]
  Kd: 210 nM
[8]
  IC50: 2 nM
Cytochrome P450 1A2
  IC50: > 50 µM
[9]
  LBF: 1.4%
[10]
  LBF: 27%
MV4-11 [11]
  Activity: Active
Mus musculus
  inhibition: Dose-Dependent Effect
Cytochrome P450 2C19
  IC50: 30.8 µM
[12]
  CLint scaled at 1 µM: 29.9 mL/min/kg
[13]
  Kd: 240 nM
Cytochrome P450 3A4
  IC50: > 50 µM
[14]
  IC50: > 30 µM
[15]
  Vd: 0.4 L/kg
